The source of these data is ChEMBL document CHEMBL1157077, “Gneyulins A and B, stilbene trimers, and noidesols A and B, dihydroflavonol-C-glucosides, from the bark of Gnetum gnemonoides” (J Nat Prod, 2010).

Test [1] has as its target T1, Sodium/glucose cotransporter 1 (Homo sapiens, UniProt P13866).
T1 sequence (P13866 whole entry): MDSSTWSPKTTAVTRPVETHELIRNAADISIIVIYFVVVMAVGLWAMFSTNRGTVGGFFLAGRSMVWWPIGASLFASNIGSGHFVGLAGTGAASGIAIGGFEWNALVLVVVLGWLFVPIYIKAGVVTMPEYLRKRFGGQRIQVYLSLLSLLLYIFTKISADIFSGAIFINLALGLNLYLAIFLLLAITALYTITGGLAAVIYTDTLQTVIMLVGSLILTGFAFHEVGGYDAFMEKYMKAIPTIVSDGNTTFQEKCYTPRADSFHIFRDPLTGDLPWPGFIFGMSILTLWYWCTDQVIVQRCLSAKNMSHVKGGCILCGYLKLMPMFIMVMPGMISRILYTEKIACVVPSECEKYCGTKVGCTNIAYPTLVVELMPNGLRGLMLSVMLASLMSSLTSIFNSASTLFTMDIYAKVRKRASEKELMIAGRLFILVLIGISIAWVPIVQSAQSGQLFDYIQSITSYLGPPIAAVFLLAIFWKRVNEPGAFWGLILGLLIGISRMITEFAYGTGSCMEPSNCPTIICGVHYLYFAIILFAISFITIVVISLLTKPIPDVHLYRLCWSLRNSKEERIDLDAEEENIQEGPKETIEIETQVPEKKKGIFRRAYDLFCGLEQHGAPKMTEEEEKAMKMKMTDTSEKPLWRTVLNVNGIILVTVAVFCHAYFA
Kind of test: Inhibition of SGLT1 transfected in african green monkey COS1 cells assessed as alpha-D-[U-14C]glucopyranoside uptake after 30 mins by scintillation counting. It is filed as cell-based, COS-1.

Test [2] addresses T2, Sodium/glucose cotransporter 2 (Homo sapiens, UniProt P31639).
T2 sequence (P31639 whole entry): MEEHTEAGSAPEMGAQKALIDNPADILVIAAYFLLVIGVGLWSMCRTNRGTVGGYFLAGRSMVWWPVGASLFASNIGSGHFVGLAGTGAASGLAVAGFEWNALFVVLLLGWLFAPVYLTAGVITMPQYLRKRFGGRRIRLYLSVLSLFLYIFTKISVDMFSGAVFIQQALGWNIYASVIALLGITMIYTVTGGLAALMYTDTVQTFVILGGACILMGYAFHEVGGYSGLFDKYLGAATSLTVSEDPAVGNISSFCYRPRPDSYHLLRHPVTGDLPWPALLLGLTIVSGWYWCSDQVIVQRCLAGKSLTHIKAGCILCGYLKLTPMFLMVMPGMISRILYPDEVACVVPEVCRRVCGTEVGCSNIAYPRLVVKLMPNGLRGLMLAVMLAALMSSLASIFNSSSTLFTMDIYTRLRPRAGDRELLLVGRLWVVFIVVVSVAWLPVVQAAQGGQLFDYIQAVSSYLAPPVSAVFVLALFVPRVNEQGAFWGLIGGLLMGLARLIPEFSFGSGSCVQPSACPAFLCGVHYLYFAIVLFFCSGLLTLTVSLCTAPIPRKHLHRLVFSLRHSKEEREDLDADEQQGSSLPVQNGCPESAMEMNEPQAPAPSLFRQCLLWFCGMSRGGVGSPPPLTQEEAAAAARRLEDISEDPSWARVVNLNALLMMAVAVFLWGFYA
Kind of test: Inhibition of SGLT2 transfected in african green monkey COS1 cells assessed as alpha-D-[U-14C]glucopyranoside uptake after 30 mins by scintillation counting. It is filed as cell-based, COS-1.

Molecules are shown by their SMILES.

Broadly, the IC50 is the midpoint of a concentration-inhibition curve.

`Oc1cc(O)cc([C@@H]2c3cc([C@@H]4Oc5cc(-c6cc7ccc(O)cc7o6)cc(O)c5[C@H]4c4cc(O)cc(O)c4)c(O)cc3O[C@H]2c2ccc(O)cc2O)c1` [GNEYULIN B]: the results for the IC50 in test [1] (read-out: IC50) and in test [2] (read-out: IC50) were 37 µM and 18 µM, respectively.

`Oc1cc(O)cc([C@@H]2c3cc([C@@H]4Oc5cc(/C=C/c6ccc(O)cc6O)cc(O)c5[C@H]4c4cc(O)cc(O)c4)c(O)cc3O[C@H]2c2ccc(O)cc2O)c1` [GNEYULIN A]: the IC50 in test [1] (read-out: IC50) was 27 µM; in test [2] (read-out: IC50), 25 µM.

As for `COc1cc(O)c2c(c1[C@@H]1O[C@H](CO)[C@@H](O)[C@H](O)[C@H]1O)O[C@H](c1ccc(O)c(O)c1)[C@@H](O)C2=O` [NOIDESOL A], the IC50 entry in test [1] (cos-1) and in test [2] (cos-1) was “Not Active” each time.

With `COc1ccc([C@H]2Oc3cc(O)c([C@@H]4O[C@H](CO)[C@@H](O)[C@H](O)[C@H]4O)c(O)c3C(=O)[C@@H]2O)cc1O` [NOIDESOL B], the IC50 entry in test [1] (cos-1) and in test [2] (cos-1) was “Not Active” in each case.
